A word on the IC50: it is the concentration that inhibits the measured activity by half.

The structures appear in SMILES notation. Counter-ions that a name gives are not always drawn. Some results are limits rather than exact numbers.

These results are taken from patent US5693672A, “3,4,5-substituted benzoylguanidines, process for their preparation, their use as a medicament or diagnostic and medicament containing them” (priority 1992, dated 1997).

For data set [1], the target named is T1, Na^+ /H^+ exchanger of rabbit erythrocytes (Oryctolagus cuniculus, UniProt P23791).
T1 construct: endogenous in cells; host or cells: erythrocytes in blood from the ear arteries of cholesterol-fed White New Zealand rabbits
T1 sequence (P23791 whole entry): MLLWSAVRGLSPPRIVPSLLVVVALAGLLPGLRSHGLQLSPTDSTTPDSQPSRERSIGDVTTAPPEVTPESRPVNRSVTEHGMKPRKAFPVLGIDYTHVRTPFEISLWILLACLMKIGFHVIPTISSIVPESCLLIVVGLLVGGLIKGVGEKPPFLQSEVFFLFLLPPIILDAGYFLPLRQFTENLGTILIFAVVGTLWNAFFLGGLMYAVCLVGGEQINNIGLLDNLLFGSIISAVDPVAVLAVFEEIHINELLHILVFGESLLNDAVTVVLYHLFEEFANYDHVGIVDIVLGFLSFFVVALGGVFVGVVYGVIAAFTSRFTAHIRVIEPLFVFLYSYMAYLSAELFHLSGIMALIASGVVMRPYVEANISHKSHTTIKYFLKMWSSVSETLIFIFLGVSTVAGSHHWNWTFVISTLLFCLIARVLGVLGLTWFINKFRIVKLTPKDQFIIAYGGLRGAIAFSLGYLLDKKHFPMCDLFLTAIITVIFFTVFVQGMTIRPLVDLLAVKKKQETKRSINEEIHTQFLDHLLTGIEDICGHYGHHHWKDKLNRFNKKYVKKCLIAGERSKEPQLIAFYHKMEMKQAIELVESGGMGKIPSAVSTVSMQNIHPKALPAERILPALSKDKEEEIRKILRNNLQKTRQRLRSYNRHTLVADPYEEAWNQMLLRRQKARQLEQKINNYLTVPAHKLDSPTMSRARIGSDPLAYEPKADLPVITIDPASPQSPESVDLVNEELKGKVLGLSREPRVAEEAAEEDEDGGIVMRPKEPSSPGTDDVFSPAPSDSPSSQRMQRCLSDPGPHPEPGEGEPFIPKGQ
Put plainly: Inhibition of the Na^+ /H^+ exchanger of rabbit erythrocytes (amiloride-sensitive Na^+ influx, flame photometry). Type of data set: cell-based, White New Zealand rabbits. The note with it: pH 7.4, 37° C. The source says:
Inhibitors of the Na^+ /H^+ exchanger of rabbit erythrocytes:
White New Zealand rabbits (Ivanovas) received a standard diet containing 2% cholesterol for six weeks in order to activate Na^+ /H^+ exchange and thus to be able to determine the Na^+ influx into the erythrocytes via Na^+ /H^+ exchange by flame photometry. The blood was taken from the ear arteries and rendered incoagulable by 25 IU/ml of potassium heparin. A part of each sample was used for the duplicate determination of the hematocrit by centrifugation. Aliquots of 100 μl in each case were used to measure the Na^+ starting content of the erythrocytes.
In order to determine the amiloride-sensitive sodium influx, 100 μl of each blood sample were incubated at pH 7.4 and 37° C. in 5 ml in each case of a hyperosmolar salt/sucrose medium (mmol/1:140 NaCl, 3 KCl, 150 sucrose, 0.1 ouabain, 20 tris(hydroxymethyl)aminomethane). The erythrocytes were then washed three times with ice-cold MgCl2 /ouabain solution (mmol/1:112 MgCl2, 0.1 ouabain) and hemolized in 2.0 ml of distilled water. The intracellular sodium content was determined by flame photometry.
The Na^+ net influx was calculated from the difference between sodium starting values and the sodium content of the erythrocytes after incubation. The amiloride-inhibitable sodium influx resulted from the difference between the sodium content of the erythrocytes after incubation with and without 3×10^-4 mol/l amiloride. The process was also carried out in this manner in the case of the compounds according to the invention.

Data set [2] relates to artificially induced ventricular fibrillation. The conditions noted are these: rat hearts, isolated; cited from earlier work.
Data set [3] concerns cardiac arrhythmias. The conditions noted are these: in vivo; cited from earlier work.

Consider `CS(=O)(=O)c1cc(C(=O)N=C(N)N)ccc1-c1ccc2ccccc2c1` [Example 2, 3-Methylsulfonyl-4-(2-naphthyl)benzoylguanidine hydrochloride], for which, in data set [1], the IC50 stood at 500 nM. That is a sub-micromolar value. The same measure, in the same setting: for `CS(=O)(=O)c1cc(C(=O)N=C(N)N)ccc1-c1cccc(-c2ccccc2)c1` [Example 3, 3-Methylsulfonyl-4-(3-biphenyl)benzoylguanidine hydrochloride] the value was more than 1000 nM. For the compound `CS(=O)(=O)c1cc(C(=O)N=C(N)N)ccc1C1CCCCC1` [Example 5, 4-Cyclohexyl-3-methylsulfonylbenzoylguanidine hydrochloride], 1700 nM corresponded to half-maximal inhibition in data set [1] (IC50). That is a single-digit micromolar value. In turn, `CS(=O)(=O)c1cc(C(=O)N=C(N)N)ccc1-c1ccccn1` [Example 6, 3-Methylsulfonyl-4-(2'-pyridyl)benzoylguanidine hydrochloride] showed an IC50 in data set [1] of more than 1000 nM.

For the compound `CS(=O)(=O)c1cc(C(=O)N=C(N)N)ccc1C#Cc1ccccc1` [Example 7, 3-Methylsulfonyl-4-[(2'-phenyl)ethynyl]benzoylguanidine hydrochloride], the midpoint of inhibition in data set [1], the IC50, lay at 200 nM. With `CS(=O)(=O)c1cc(C(=O)N=C(N)N)ccc1CCc1ccccc1` [Example 9, 3-Methylsulfonyl-4-phenylethylbenzoylguanidine hydrochloride], in data set [1], the 50% inhibitory concentration (IC50) turned out to be 900 nM. The compound `CS(=O)(=O)c1cc(C(=O)N=C(N)N)ccc1C1CCCC1` [Example 10, 4-Cyclopentyl-3-methylsulfonylbenzoylguanidine hydrochloride] displayed a 50% inhibitory concentration (IC50) in data set [1] of 100 nM.

Compound `CS(=O)(=O)c1cc(C(=O)N=C(N)N)cc(C2CCCC2)c1` [Example 13, 3-Cyclopentyl-5-methylsulfonylbenzoylguanidine hydrochloride] had an IC50 in data set [1] of 3000 nM. This IC50 lies about 30-fold higher than the previous one. Take `NC(N)=NC(=O)c1nc(Cl)c(N)nc1N` [amiloride]: the “suppression of artificially induced ventricular fibrillation” value in data set [2] is on record as “suppressed completely”. In data set [3], the accompanying side effects entry is “hypotensive and saluretic action”; the antiarrhythmic effect entry is “only slightly pronounced”. On to `CCN(c1nc(N)c(C(=O)N=C(N)N)nc1Cl)C(C)C` [ethylisopropylamiloride, Ethylisopropylamiloride], for which, in data set [2], the “potency relative to amiloride in the ventricular fibrillation model” value is given as “even more potent than amiloride”.
